Experimental data from patent US20160272617A1, “SUBSTITUTED PHENYLALANINE DERIVATIVES” (BAYER PHARMA AKTIENGESELLSCHAFT, priority 2013, published 2016).
pIC50: −log10 of the molar value. Structures can show the parent of a compound that is named as a salt.

Experiments:
[1] = target: T1, human factor XIa (Homo sapiens, UniProt P03951); experiment: Measurement of FXIa inhibition (fluorogenic peptide substrate Boc-Glu(OBzl)-Ala-Arg-AMC); format: biochemical; settings: factor XIa from Kordia, 15 min preincubation, 30 min at 22° C., fluorescence
T1 construct: purchased Kordia
T1 sequence (P03951 388-625 limits assumed): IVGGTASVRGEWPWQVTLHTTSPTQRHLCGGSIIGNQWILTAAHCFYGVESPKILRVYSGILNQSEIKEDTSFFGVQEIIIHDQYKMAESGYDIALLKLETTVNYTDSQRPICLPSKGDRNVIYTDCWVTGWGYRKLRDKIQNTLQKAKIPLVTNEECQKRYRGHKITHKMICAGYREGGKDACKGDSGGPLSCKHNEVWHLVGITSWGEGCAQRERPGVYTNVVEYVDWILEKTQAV
T1 sequence (P03951 19-387 partner limits assumed): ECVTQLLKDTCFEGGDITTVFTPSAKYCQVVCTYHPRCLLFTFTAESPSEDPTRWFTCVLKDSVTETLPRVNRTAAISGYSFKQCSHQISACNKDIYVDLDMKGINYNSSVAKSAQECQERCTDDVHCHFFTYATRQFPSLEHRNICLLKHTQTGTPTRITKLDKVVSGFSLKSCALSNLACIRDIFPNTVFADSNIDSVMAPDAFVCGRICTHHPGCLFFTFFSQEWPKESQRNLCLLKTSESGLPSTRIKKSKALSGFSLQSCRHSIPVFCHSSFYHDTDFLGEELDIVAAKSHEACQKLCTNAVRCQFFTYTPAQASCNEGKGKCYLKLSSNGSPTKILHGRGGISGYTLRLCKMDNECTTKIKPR
Method in brief: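 Released AMC fluorescence (360/460 nm) read after 30 min at 22 °C. The reaction was started with Boc-Glu(OBzl)-Ala-Arg-AMC (10 μM stock) after a 15 min preincubation of the enzyme (0.45 nM stock) with compound (final 50 μM to 0.00013 μM).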

[2] = target: T2, human plasmin (Homo sapiens, UniProt P00747); experiment: Measurement of plasmin inhibition (fluorogenic peptide substrate MeOSuc-Ala-Phe-Lys-AMC); format: biochemical; settings: plasmin from Kordia, 15 min preincubation, 30 min at 22° C., fluorescence
T2 construct: purchased Kordia
T2 sequence (P00747 581-810 limits assumed): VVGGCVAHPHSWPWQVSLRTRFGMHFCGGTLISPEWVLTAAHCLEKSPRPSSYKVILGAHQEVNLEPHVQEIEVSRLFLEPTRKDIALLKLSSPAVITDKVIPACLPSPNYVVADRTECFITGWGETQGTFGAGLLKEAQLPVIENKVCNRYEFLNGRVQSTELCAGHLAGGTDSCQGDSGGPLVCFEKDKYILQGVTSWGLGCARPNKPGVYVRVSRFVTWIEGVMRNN
T2 sequence (P00747 97-580 partner limits assumed): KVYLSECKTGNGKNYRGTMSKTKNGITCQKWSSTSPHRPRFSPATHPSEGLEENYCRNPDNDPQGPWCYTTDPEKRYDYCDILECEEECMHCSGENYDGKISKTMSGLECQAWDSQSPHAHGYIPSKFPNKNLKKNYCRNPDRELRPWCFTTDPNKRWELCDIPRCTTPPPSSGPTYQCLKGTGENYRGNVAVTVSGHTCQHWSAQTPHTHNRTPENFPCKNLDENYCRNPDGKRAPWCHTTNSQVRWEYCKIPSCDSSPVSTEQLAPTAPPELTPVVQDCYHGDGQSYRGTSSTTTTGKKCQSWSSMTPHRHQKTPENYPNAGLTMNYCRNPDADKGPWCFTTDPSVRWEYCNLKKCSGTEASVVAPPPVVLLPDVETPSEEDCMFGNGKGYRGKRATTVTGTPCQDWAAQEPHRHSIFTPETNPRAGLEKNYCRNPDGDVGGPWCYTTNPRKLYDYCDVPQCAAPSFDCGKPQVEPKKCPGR
Protocol: The plasmin inhibition of the inventive substances is determined using a biochemical test system which utilizes the reaction of a peptidic plasmin substrate to determine the enzymatic activity of human plasmin. Here, plasmin cleaves from the peptic plasmin substrate the C-terminal aminomethylcoumarin (AMC), the fluorescence of which is measured. The determinations are carried out in microtitre plates.
Test substances are dissolved in dimethyl sulphoxide and serially diluted in dimethyl sulphoxide (3000 μM to 0.0078 μM; resulting final concentrations in the test: 50 μM to 0.00013 μM). In each case 1 μl of the diluted substance solutions are placed into the wells of white microtitre plates from Greiner (384 wells). Subsequently, the following are added successively: 20 μl of assay buffer (50 mmol/Tris buffer pH 7.4; 100 mmol/l sodium chloride; 5 mmol/calcium chloride; 0.1% bovine serum albumin) and 20 μl of plasmin from Kordia (0.3 μg/ml in assay buffer) are then added successively. After 15 min of incubation, the enzyme reaction is started by addition of 20 μl of the plasmin substrate MeOSuc-Ala-Phe-Lys-AMC dissolved in assay buffer (150 μM in assay buffer) from Bachem, the mixture is incubated at room temperature (22° C.) for 30 min and fluorescence is then measured (excitation: 360 nm, emission: 460 nm). The measured emissions of the test batches with test substance are compared to those of control batches without test substance (only dimethyl sulphoxide instead of test substance in dimethyl sulphoxide), and the IC50 values are calculated from the concentration/activity relationships.

[3] = system: human and animal plasma; experiment: Determination of anticoagulatory activity: activated partial thromboplastin time (aPTT) in plasma; settings: concentration of test substance which brings about a 1.5-fold extension of the aPTT; plasma species not given
Method in brief: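 Citrated plasma (1:9, 0.11 M citrate; 4000 g, 15 min) from human or animal blood incubated with test compound and cephalin/kaolin PTT reagent for 3 min at 37° C.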

| pIC50 [1] | pIC50 [2] | SMILES | aPTT [3] [µmol/L] |
| --- | --- | --- | --- |
| 8.77 | 8.72 | Cc1cc(C(=O)NC(C)C)ccc1-c1ccc(C[C@H](NC(=O)[C@H]2CC[C@H](CN)CC2)C(=O)Nc2ccc(-c3nn[nH]n3)cc2)cc1 [Example 7, 4′-[(2S)-2-({[trans-4-(Aminomethyl)cyclohexyl]carbonyl}amino)-3-oxo-3-{[4-(2H-tetrazol-5-yl)phenyl]amino}propyl]-N-isopropyl-2-methylbiphenyl-4-carboxamide hydrochloride] | – |
| 8.21 | 8.17 | Cc1cc(C(=O)NC(C)C)ccc1-c1ccc(C[C@H](NC(=O)[C@H]2CC[C@H](CN)CC2)C(=O)Nc2cc(C(=O)O)c3cn[nH]c3c2)cc1 [Example 161, 6-({(2S)-2-({[trans-4-(Aminomethyl)cyclohexyl]carbonyl}amino)-3-[4′-(isopropylcarbamoyl)-2′-methylbiphenyl-4-yl]propanoyl}amino)-1H-indazole-4-carboxylic acid hydrochloride] | – |
| 8.74 | 8.24 | Cc1cc(C(=O)N2CCCC2)ccc1-c1ccc(C[C@H](NC(=O)[C@H]2CC[C@H](CN)CC2)C(=O)Nc2ccc(-c3nn[nH]n3)cc2)cc1 [Example 20, trans-4-(Aminomethyl)-N-[(2S)-3-[2′-methyl-4′-(pyrrolidin-1-ylcarbonyl)biphenyl-4-yl]-1-oxo-1-{[4-(2H-tetrazol-5-yl)phenyl]amino}propan-2-yl]cyclohexanecarboxamide] | – |
| 8.25 | 8.89 | Cc1cc(C(=O)NC(C)C)ccc1-c1ccc(C[C@H](NC(=O)C2CCC(CN)CC2)C(=O)Nc2ccc3cn[nH]c3c2)cc1 (single isomer, unassigned; enantiomer 2) [Example 170] | – |
| 8.89 | 8.85 | Cc1cc(C(=O)NC(C)C)ccc1-c1ccc(C[C@H](NC(=O)[C@H]2CC[C@H](CN)CC2)C(=O)Nc2ccc(-c3nn[nH]n3)c(F)c2)cc1 [Example 96, 4′-[(2S)-2-({[trans-4-(Aminomethyl)cyclohexyl]carbonyl}amino)-3-{[3-fluoro-4-(2H-tetrazol-5-yl)phenyl]amino}-3-oxopropyl]-N-isopropyl-2-methylbiphenyl-4-carboxamide hydrochloride] | 0.5 |
| 8.74 | 8.96 | Cc1cc(C(=O)NC(C)C)ccc1-c1ccc(CC(NC(=O)[C@H]2CC[C@H](CN)CC2)C(=O)Nc2ccc3cn[nH]c3c2)cc1 (mixture of isomers) [Example 21, 4′-[(2R,S)-2-({[trans-4-(Aminomethyl)cyclohexyl]carbonyl}amino)-3-(1H-indazol-6-ylamino)-3-oxopropyl]-N-isopropyl-2-methylbiphenyl-4-carboxamide hydrochloride (enantiomer mixture)] | – |
| 5.55 | 6.57 | Cc1cc(C(=O)NC(C)C)ccc1-c1ccc(C[C@@H](NC(=O)C2CCC(CN)CC2)C(=O)Nc2ccc3cn[nH]c3c2)cc1 (single isomer, unassigned; enantiomer 1) [Example 169] | – |
| 8.28 | 8.89 | Cc1cc(C(=O)NC2CCC2)ccc1-c1ccc(C[C@H](NC(=O)[C@H]2CC[C@H](CN)CC2)C(=O)Nc2ccc3cc(C(=O)O)[nH]c3c2)cc1 [Example 160, 6-({(2S)-2-({[trans-4-(Aminomethyl)cyclohexyl]carbonyl}amino)-3-[4′-(cyclobutylcarbamoyl)-2′-methylbiphenyl-4-yl]propanoyl}amino)-1H-indole-2-carboxylic acid hydrochloride] | – |
| 8.15 | 9.24 | Cc1cc(C(=O)NC(C)C)ccc1-c1ccc(C[C@H](NC(=O)[C@H]2CC[C@H](CN)CC2)C(=O)Nc2cc(Cl)c3oc(=O)[nH]c3c2)cc1 [Example 156, 4′-{(2S)-2-({[trans-4-(Aminomethyl)cyclohexyl]carbonyl}amino)-3-[(7-chloro-2-oxo-2,3-dihydro-1,3-benzoxazol-5-yl)amino]-3-oxopropyl}-N-isopropyl-2-methylbiphenyl-4-carboxamide hydrochloride] | – |
| 8.85 | 8.72 | CNC(=O)C(F)(F)C(F)(F)c1nnc(-c2ccc(NC(=O)[C@H](Cc3ccc(-c4ccc(C(=O)NC(C)C)cc4C)cc3)NC(=O)[C@H]3CC[C@H](CN)CC3)cc2)[nH]1 [Example 165, 4′-({(2S)-2-({[trans-4-(Aminomethyl)cyclohexyl]carbonyl}amino)-3-oxo-3-[(4-{5-[1,1,2,2-tetrafluoro-3-(methylamino)-3-oxopropyl]-4H-1,2,4-triazol-3-yl}phenyl)amino]propyl}-N-isopropyl-2-methylbiphenyl-4-carboxamide hydrochloride] | – |
| 8.10 | 9.13 | Cc1cc(C(=O)NC2CCC2)ccc1-c1ccc(C[C@H](NC(=O)[C@H]2CC[C@H](CN)CC2)C(=O)Nc2cc(Cl)c3oc(=O)[nH]c3c2)cc1 [Example 102, 4′-{(2S)-2-({[trans-4-(Aminomethyl)cyclohexyl]carbonyl}amino)-3-[(7-chloro-2-oxo-2,3-dihydro-1,3-benzoxazol-5-yl)amino]-3-oxopropyl}-N-cyclobutyl-2-methylbiphenyl-4-carboxamide hydrochloride] | – |

| SMILES | pIC50 [1] | pIC50 [2] | aPTT [3] [µmol/L] |
| --- | --- | --- | --- |
| CC(C)NC(=O)c1ccc(-c2ccc(C[C@H](NC(=O)[C@H]3CC[C@H](CN)CC3)C(=O)Nc3cc(F)c4cn[nH]c4c3)cc2)c(Cl)c1 [Example 134, 4′-{(2S)-2-({[trans-4-(Aminomethyl)cyclohexyl]carbonyl}amino)-3-[(4-fluoro-1H-indazol-6-yl)amino]-3-oxopropyl}-2-chloro-N-isopropylbiphenyl-4-carboxamide hydrochloride] | 8.05 | 9.19 | 0.44 |
| Cc1cc(C(=O)NC2CCC2)ccc1-c1ccc(C[C@H](NC(=O)[C@H]2CC[C@H](CN)CC2)C(=O)Nc2ccc3c(=O)[nH][nH]c3c2)cc1 [Example 162, 4′-{(2S)-2-({[trans-4-(Aminomethyl)cyclohexyl]carbonyl}amino)-3-oxo-3-[(3-oxo-2,3-dihydro-1H-indazol-6-yl)amino]propyl}-N-cyclobutyl-2-methylbiphenyl-4-carboxamide hydrochloride] | 8.74 | 8.96 | 0.15 |
| Cc1cc(C(=O)NC(C)C)ccc1-c1ccc(C[C@H](NC(=O)[C@H]2CC[C@H](CN)CC2)C(=O)Nc2ccc(-c3nnc(C(F)(F)C(F)(F)C(=O)O)[nH]3)cc2)cc1 [Example 116, 3-{5-[4-({(2S)-2-({[trans-4-(Aminomethyl)cyclohexyl]carbonyl}amino)-3-[4′-(isopropylcarbamoyl)-2′-methylbiphenyl-4-yl]propanoyl}amino)phenyl]-4H-1,2,4-triazol-3-yl}-2,2,3,3-tetrafluoropropanoic acid hydrochloride] | 8.70 | 8.36 | 0.57 |
| CC(C)NC(=O)c1ccc(-c2ccc(C[C@H](NC(=O)[C@H]3CC[C@H](CN)CC3)C(=O)Nc3ccc4[nH]c(=O)[nH]c4c3)cc2)c(Cl)c1 [Example 137, 4′-{(2S)-2-({[trans-4-(Aminomethyl)cyclohexyl]carbonyl}amino)-3-oxo-3-[(2-oxo-2,3-dihydro-1H-benzimidazol-5-yl)amino]propyl}-2-chloro-N-isopropylbiphenyl-4-carboxamide hydrochloride] | 7.96 | 8.66 | 0.07 |
| Cc1cc(C(=O)NC(C)C)ccc1-c1ccc(C[C@H](NC(=O)[C@H]2CC[C@H](CN)CC2)C(=O)Nc2ccc(-c3nnc(CCC(=O)O)[nH]3)cc2)cc1 [Example 157, 3-{5-[4-({(2S)-2-({[trans-4-(Aminomethyl)cyclohexyl]carbonyl}amino)-3-[4′-(isopropyl-carbamoyl)-2′-methylbiphenyl-4-yl]propanoyl}amino)phenyl]-4H-1,2,4-triazol-3-yl}propanoic acid hydrochloride] | 8.44 | 8.77 | 0.33 |
| Cc1cc(C(=O)NC(C)C)ccc1-c1ccc(C[C@H](NC(=O)[C@H]2CC[C@H](CN)CC2)C(=O)Nc2cc(Cl)c3cn[nH]c3c2)cc1 [Example 159, 4′-{(2S)-2-({[trans-4-(Aminomethyl)cyclohexyl]carbonyl}amino)-3-[(4-chloro-1H-indazol-6-yl)amino]-3-oxopropyl}-N-isopropyl-2-methylbiphenyl-4-carboxamide hydrochloride] | 8.46 | 9.49 | 0.36 |
